Source: ChEMBL document CHEMBL3044650, “Interaction studies of E. coli uracil phosphoribosyltransferase with 5-fluorouracil for potent anti cancer activity” (Med Chem Res, 2012)

Biological target: T1, Uracil phosphoribosyltransferase (Escherichia coli (strain K12), UniProt P0A8F0)
T1 sequence (P0A8F0 whole entry): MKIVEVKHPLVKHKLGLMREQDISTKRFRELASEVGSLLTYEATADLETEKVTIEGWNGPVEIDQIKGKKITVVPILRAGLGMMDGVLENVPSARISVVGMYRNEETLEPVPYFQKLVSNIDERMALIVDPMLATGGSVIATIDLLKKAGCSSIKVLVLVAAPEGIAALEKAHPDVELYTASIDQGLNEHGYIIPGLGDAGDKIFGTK
Experiment: Inhibition of Escherichia coli K-12 MTCC 1302 UPRT activity by spectrophotometry

With O=c1[nH]cc(F)c(=O)[nH]1 [FLUOROURACIL] the Ki was 13 µM.
